According to patent US12123019B2, “Uses of kinase inhibitors for inducing and maintaining pluripotency” (Whitehead Institute for Biomedical Research, priority 2014, dated 2024):

Tests used:
[1] = system: OCT4-ΔPE-GFP+ naïve human ESCs; assay: Maintenance of OCT4-ΔPE-GFP+ naïve human ESCs with additional media additives or changed basal medium; format: cell-based; settings: for proportion of OCT4-ΔPE-GFP+ cells: inhibitor included in 5i/L/A medium, three passages
Source text: The kinase inhibitors reported by Hanna and colleagues may have an additive effect in combination with the 5i/L/A medium. […] Another difference between the naïve human studies reported to date is the use of 20% knock-out serum replacement (KSR) or Albumax-containing medium (Gafni et al., 2013; Valamehr et al., 2014; Ware et al., 2014) vs. serum-free N2B27 medium (this study). The consequences of applying the inhibitor cocktail in the presence of 20% KSR was therefore investigated. […] It is concluded that the induction and maintenance of OCT4-ΔPE-GFP+ human ESCs is highly sensitive to the choice of basal medium.

[2] = system: clonal line of OCT4-ΔPE-GFP+ cells derived in the absence of transgenes; assay: Withdrawal of single kinase inhibitors or growth factors from 5i/L/FA medium; format: cell-based, human; settings: for differentiation and expression of pluripotency genes: FGF and Activin A removed together from 5i/L/FA
Source text: To investigate the relative contribution of individual components in 5i/L/FA medium, single kinase inhibitors or growth factors were removed from a clonal line of OCT4-ΔPE-GFP+ cells derived in the absence of transgenes. […] Therefore, the maintenance of OCT4-ΔPE-GFP reporter activity is dependent primarily on MEK inhibition and BRAF inhibition, while robust proliferation of GFP+ cells requires ROCK inhibition. Recombinant FGF enhances the induction of naïve reporter activity, but can be omitted in established GFP+ cells.

[3] = system: WIBR3 OCT4-ΔPE-GFP+ human ESCs; assay: Viability screen and titration: viable (DAPI-) OCT4-ΔPE-GFP+ cells after DOX withdrawal in 2i/L/SB590885; format: cell-based; settings: for concentration giving a significant improvement in the proportion of viable GFP+ cells (titration): titration of PD0325901, CHIR99021 and SB590885, two passages after DOX withdrawal
Protocol: To screen for small molecules that support naïve human pluripotency, doxycycline was withdrawn from a clonal line of WIBR3 OCT4-ΔPE-GFP+ human ESCs derived in 2i/L/DOX. 24 h after Dox withdrawal, cells were dissociated in 0.25% trypsin/EDTA solution (Invitrogen) and seeded at a density of 5000 cells per individual well in 96 well plates on a MEF feeder layer in 2i/L supplemented with the ROCK-inhibitor Y-27632. After an additional 24 h, 2i/L medium in each individual 96 well was supplemented with a kinase inhibitor from the LINCS inhibitor library (Gray Laboratory, Dana Farber Cancer Institute, Boston, MA) at a final concentration of 1 μM. To improve experimental consistency the small molecule library was applied using the Caliper RapidPlate 96 well Liquid Handling System (Zymark, Westborough, MA). Briefly, a master plate containing 10 mM stock solution of the library in DMSO was first diluted to 100 μM in HEPES aqueous solution (daughter plate), and subsequently to 10 μM in N2B27 basal medium supplemented with 2i/L (granddaughter plate). This granddaughter plate was then diluted a further 10× in 2i/L medium, the final medium was pre-mixed and applied slowly to the 96 well assay plate. Following two medium changes during a seven day period the proportion of OCT4-ΔPE-GFP+ human ESCs in each well was assessed using the High-Throughput System on the LSRFortessa (Beckton-Dickinson, San Jose, CA). To screen for small molecules that improve the proportion of viable OCT4-ΔPE-GFP+ cells, this assay was modified by the addition of 1.0 μM SB590885 to each well and inclusion of a 10 minute DAPI (Life Technologies) staining prior to high-throughput FACS analysis. Viable cells were gated from the DAPI-negative fraction and subsequently assessed for GFP status.
This led us to consider whether other small molecules could cooperate with 2i/L/SB590885 to improve the fraction of viable GFP+ cells. Inclusion of a live/dead assay enhanced the resolution of the 96 well high-throughput FACS analysis, allowing for more sensitive discrimination between the proportion of viable OCT4-ΔPE-GFP+ cells cultured in 2i/L/DOX vs. 2i/L/SB590885 (FIG. 3A). This viability assay was included in a modified screen in which GFP+ cells were cultured for two passages after DOX withdrawal in 2i/L/SB590885 supplemented with the kinase inhibitor library (FIG. 3B-C and FIG. 10A). […] A titration of the concentrations of PD0325901, CHIR99021 and SB590885 was also performed during two passages after DOX withdrawal followed by high-throughput FACS analysis (FIG. 3D). […] This is reminiscent of recent evidence that lowered GSK3 inhibition reduces differentiation and enhances the self-renewal of rat ESCs (Meek et al., 2013). […]

[4] = system: transgene-dependent naïve human ES cells (subclone of WIBR3); assay: Titration and proliferation assay in transgene-dependent naïve human ES cell line after DOX withdrawal (GSK3/Wnt signal modulators); format: cell-based; settings: added to 4i/L/A: CHIR99021 1 μM replacing IM12, or IWR1 2.5 μM
Protocol: A transgene-dependent naïve human embryonic stem (ES) cell line, a subclone of WIBR3, was used to titrate different concentrations of inhibitors in 5i/L/A (see Theunissen et al., Cell Stem Cell, 2014). The cell line used is dependent on Doxycycline (DOX) to maintain the expression of two lentiviral transgenes, KLF2 and NANOG. […] A titration assay was performed to determine the optimal concentrations of small molecule inhibitors to maintain naïve human DES cells. The cells were subject to sequential passaging by single cell dissociation at low density (1:10) under four conditions: 2i/L, 5i/L/A, t5i/L/A (0.2 μM GSK3 inhibitor IM12) and 4i/L/A (removal of GSK3 inhibitor IM12).
The proliferation of naïve human ES cells in the presence of different Wnt signal modulators was quantified after the withdrawal of DOX from the transgene-dependent cell line described above. In a six-well plate, 1×10^5 cells were seeded per well and cells were dissociated and re-seeded at a 1:5 density for three successive passages. Cell numbers at successive passages were recorded under six conditions (n=2 per group): 2i/L/DOX (control), 2i/L, 5i/L/A, 4i/L/A (removal of GSK3 inhibitor IM12), 4i/L/A+CHIR99021 (1 μM), and 4i/L/A+IWR1 (2.5 μM).

[5] = system: OCT4-ΔPE-GFP-negative (primed) human ESCs; assay: Removal of latent OCT4-ΔPE-GFP-negative cells during 2i/L/DOX induction; format: cell-based; settings: additional treatment with 0.1 μM PD173074 and 5 μM SB431542 upon addition of 2i/L/DOX
Source text: VSVG coated lentiviruses were generated in HEK-293 cells as described previously (Brambrink et al., 2008; Soldner et al., 2009; Soldner et al., 2011). Briefly, culture medium was changed 12 hr post-transfection and virus-containing supernatant was collected 48 to 72 hr post transfection. Viral supernatant was filtered through a […] filter. Virus-containing supernatants of the 2 reprogramming viruses (FUW-tetO-lox-hKLF2 and FUW-tetO-lox-hNANOG) were pooled and supplemented with the FUW-lox-M2rtTA virus and an equal volume of fresh culture medium. 1×10^6 human ESCs were seeded 24 hr before transduction in T75 flasks on matrigel in mTesr1 medium (STEMCELL Technologies). Two consecutive infections in the presence of […] of polybrene were performed over a period of 24 hr. Culture medium was changed 12 hr after the last infection. Five days after transduction, human ESCs were passaged using 0.25% trypsin/EDTA solution (Invitrogen) and re-plated on mitomycin C inactivated mouse embryonic fibroblast (MEF) feeder layers in conventional human ESC medium. To induce conversion to the naïve state, human ESCs were trypsinized and seeded at a density of 1×10^5 cells per 6 individual well on a MEF feeder layer in presence of ROCK inhibitor Y-27632. […]

OCT4-ΔPE-GFP+ human ESCs = assay: Validation of hit compounds in 6 well format: DOX withdrawal and culture in 2i/L plus hit compound; format: cell-based
Source text: To identify compounds that sustain OCT4-ΔPE-GFP activity in the absence of KLF2 and NANOG expression, a kinase inhibitor library was screened in the presence of 2i/L for a period of 7 days after DOX withdrawal in 96 well format (FIG. 2A). This screen identified 10 different hit compounds that partially rescued the proportion of GFP+ cells when assayed by high-throughput FACS analysis (FIG. 2B-C and FIG. 9A). Notable among these hits were four separate inhibitors of BRAF and four inhibitors of upstream receptor tyrosine kinases (RTKs), including DDR1, VEGFR1 and FGFR1. A validation experiment was then performed in 6 well format by withdrawing DOX and culturing the cells in 2i/L supplemented with each hit compound for up to 10 passages (FIG. 2D). Nearly all hit compounds maintained a proportion of GFP+ cells similar to that observed with DOX. […] Gene expression analysis 5 passages after DOX withdrawal confirmed the absence of KLF2 and NANOG transgene expression and retention of endogenous OCT4 and GFP transcripts (FIG. 2E and FIG. 9B). To validate these findings in an independent system DOX-inducible KLF2 and NANOG transgenes were introduced in a line of wild-type WIBR3 human ESCs. Upon application of DOX and 2i/L, dome-shaped colonies appeared that could be expanded clonally.

[6] = three passages after withdrawal of the component from 5i/L/FA

Molecule: insulin: media additive
- beneficial effect of additive ([1]; insulin added): A beneficial effect was not observed

Molecule: hLIF: recombinant human LIF (made in-house)
- OCT4-ΔPE-GFP reporter activity [2, 6]: unaffected
- pluripotency gene expression [2, 6]: unaffected

Molecule: Activin A: cytokine (Peprotech, 20 ng/mL)
- differentiation and expression of pluripotency genes [2]: more differentiation and reduced expression
- OCT4-ΔPE-GFP reporter activity [2, 6]: did not cause a reduction

Molecule: COc1ccc(N(C(=O)Oc2c(C)cccc2C)c2ccnc(Nc3ccc(N4CCN(C)CC4)cc3)n2)c(OC)c1 [WH-4-023]
- proportion of viable OCT4-ΔPE-GFP+ cells after DOX withdrawal ([3]; 1 μM WH-4-023 combined with optimized concentrations of PD0325901, CHIR99021 and SB590885): further improved
- fraction of viable GFP+ cells ([3]; two passages after DOX withdrawal in 2i/L/SB590885 supplemented with kinase inhibitor library): improved the fraction of viable GFP+ cells
- OCT4-ΔPE-GFP reporter activity [2, 6]: slight reduction
- colony morphology [2, 6]: change in morphology

Molecule: Cc1cnc(-c2cnc(NCCNc3ccc(C#N)cn3)nc2-c2ccc(Cl)cc2Cl)[nH]1 [CHIR99021]
- proliferation of naïve human cells (cell number) [4]: did not further stimulate the proliferation
- proportion of viable GFP+ cells ([3]; higher concentrations of CHIR99021): opposite effect
- proportion of viable GFP+ cells ([3]; lower concentrations of CHIR99021): improved the proportion of viable GFP+ cells
- concentration giving a significant improvement in the proportion of viable GFP+ cells (titration) [3]: 0.3 µM

Molecule: NC(=O)c1ccc(-c2nc(-c3ccc4c(c3)OCO4)c(-c3ccccn3)[nH]2)cc1 [SB431542]
- latent OCT4-ΔPE-GFP-negative cells [5]: removed almost entirely

Molecule: Cc1ccc(-n2nc(C(C)(C)C)cc2NC(=O)Nc2ccc(OCCN3CCOCC3)c3ccccc23)cc1 [BIRB796]
- proportion of OCT4-ΔPE-GFP+ cells [1]: did not affect

Molecule: O=C(Nc1cccc2cccnc12)c1ccc(N2C(=O)[C@@H]3[C@H](C2=O)[C@@H]2C=C[C@H]3C2)cc1 [IWR1]
- proliferation of naïve human cells (cell number) [4]: did not further stimulate the proliferation

Molecule: FGF: recombinant fibroblast growth factor 2 (R&D systems, 8 ng/mL)
- differentiation and expression of pluripotency genes [2]: more differentiation and reduced expression
- any of the parameters examined ([2]; withdrawal of FGF from 5i/L/FA): no apparent effect

Molecule: Cc1[nH]c2ccccc2c1C1=C(NCCc2ccc(F)cc2)C(=O)N(C)C1=O [IM12]
- morphology upon long-term culture without DOX ([3]; CHIR99021 replaced with IM12): improved morphology

Molecule: CN(C)CCOc1ccc(-c2nc(-c3ccncc3)c(-c3ccc4c(c3)CC/C4=N\O)[nH]2)cc1 [SB590885]
- viability (FACS-based live/dead discrimination assay) ([3]; cells maintained in 2i/L/SB590885): reduced viability
- concentration giving a significant improvement in the proportion of viable GFP+ cells (titration) [3]: 0.5 µM
- OCT4-ΔPE-GFP reporter activity [2, 6]: rapid and widespread loss
- colony morphology [2, 6]: rapid and widespread loss
- pluripotency gene expression [2, 6]: rapid and widespread loss
- colony morphology and proliferation (OCT4-ΔPE-GFP+ human ESCs; 6 well, 2i/L plus hit compound, up to 10 passages without DOX): preserved the best colony morphology and proliferation
- colony morphology and expression of endogenous OCT4 (OCT4-ΔPE-GFP+ human ESCs; wild-type WIBR3 lines with DOX-inducible KLF2 and NANOG, maintained in 2i/L/SB590885 after DOX withdrawal): retaining both colony morphology and the expression of endogenous OCT4

Molecule: O=C1c2ccccc2-c2n[nH]c3cccc1c23 [SP600125]
- expression of KLF4 and KLF2 ([1]; SP600125 added to 5i/L/A): increase in expression of KLF4 and KLF2
- proportion of OCT4-ΔPE-GFP+ cells [1]: did not affect

Molecule: O=C(NOC[C@H](O)CO)c1ccc(F)c(F)c1Nc1ccc(I)cc1F [PD0325901]
- concentration giving a significant improvement in the proportion of viable GFP+ cells (titration) [3]: 1 µM
- OCT4-ΔPE-GFP reporter activity [2, 6]: rapid and widespread loss
- colony morphology [2, 6]: rapid and widespread loss
- pluripotency gene expression [2, 6]: rapid and widespread loss

Molecule: CC(N)C1CCC(C(=O)Nc2ccncc2)CC1 (stereo not shown) [Y-27632]
- proportion of viable GFP+ cells ([3]; Y-27632 (10 μM) added to 2i/L/SB590885 (0.5 μM), two passages): improved the proportion of viable GFP+ cells
- proliferation [2, 6]: significant reduction
